One assay has as its system mice. Put plainly: Appetite suppression in mice, consumption of 20% sucrose solution. It is filed as in vivo. The settings on record: intraperitoneal injection, 50 micrograms, in phosphate buffered saline. The protocol:
Mice were deprived of their normal feed for two days and given free access to a 20% sucrose solution on the first day of feed deprivation. After the 2-day feed deprivation period, mice were injected intraperitoneally with 0.5ml of a solution containing the test substance. Thirty minutes after injection, individual mice were placed in one of eight 15 cm^2 test box with a stainless steel grid floor and a glass drinking tube which projected into the box. The drinking tube was connected to a reservoir containing a 20% sucrose solution, and the interior of the drinking tube contained an electrode enabling the detection of drinking contacts with the solution by measuring the flow of a weak (unnoticeable) electric current through mice by means of an electronic apparatus connected to the drinking tube electrode and the stainless steel grid floor. Consumption of the sucrose solution was measured over a 10 minute period by electronically recording the total amount of contact with the sucrose solution during the test session. The degree of appetite suppression produced by a given test substance was determined by statistical comparison of the duration of sucrose consumption by control (vehicle treated) mice with that of mice treated with a test substance. The degree of appetite suppression in a treated group of mice was expressed as percent of the control groups response. […]

In another assay the test system is fasted rats. The settings on record: cited from earlier work.

Where a SMILES comes first, the peptide text is derived from it.

Regarding `CC[C@H](C)[C@H](NC(=O)[C@H](Cc1ccccc1)NC(=O)[C@H](CC(=O)O)NC(=O)[C@H](CCCNC(=N)N)NC(=O)[C@@H](NC(=O)[C@H](C)NC(=O)[C@H](CC(C)C)NC(=O)[C@H](CC(N)=O)NC(=O)[C@H](CC(=O)O)NC(=O)[C@H](CC(C)C)NC(=O)[C@@H](NC(=O)[C@@H](NC(=O)[C@H](CC(N)=O)NC(=O)[C@H](CCSC)NC(=O)[C@H](CCC(=O)O)NC(=O)[C@H](CC(=O)O)NC(=O)[C@H](CO)NC(=O)[C@H](Cc1ccccc1)NC(=O)[C@H](CO)NC(=O)CNC(=O)[C@H](CC(=O)O)NC(=O)[C@H](C)NC(=O)[C@@H](N)Cc1c[nH]cn1)[C@@H](C)O)C(C)C)[C@@H](C)O)C(=O)N[C@@H](CC(N)=O)C(=O)N[C@@H](Cc1c[nH]c2ccccc12)C(=O)N[C@@H](CC(C)C)C(=O)N[C@@H](CC(C)C)C(=O)N[C@@H](Cc1c[nH]cn1)C(=O)N[C@H](C(=O)N[C@@H](CCCCN)C(=O)N[C@H](C(=O)N[C@H](C(=O)N[C@@H](CC(=O)O)C(=O)O)[C@@H](C)O)[C@@H](C)CC)[C@@H](C)O` [synthetic porcine GLP-2, porcine GLP-2] (H-HADGSFSDEMNTVLDNLATRDFINWLLHTKITD-OH), the suppressed sucrose consumption in the assay with mice is recorded as 38%.

As to GLP-1, the feeding entry with fasted rats (fasted rats, intracerebroventricular (ICV) administration) is listed as “inhibited feeding”. Moreover, in the assay with fasted rats (peripheral administration), the “effect on feeding behaviour” value was “no effect on feeding behaviour”.

As to Glucagon, the “effect on food intake” value with fasted rats (fasted rats, intraperitoneal administration of pharmacological doses) is on record as “no effect on food intake”.

These data come from patent publication EP1975177B1, “An appetite-suppressing peptide, its compositions and use” (Novo Nordisk A/S, priority 1996, dated 2011).
